According to patent US8030443B2, “Squamous cell carcinoma antigen-derived peptide binding to HLA-A24 molecule” (Kurume University, priority 2005, dated 2011):

Test system: PBMCs from HLA-A24^+ cancer patients and HDs
Assay: Induction of peptide-specific CTLs from PBMCs, IFN-γ ELISA against peptide-pulsed C1R-A24 cells
Format: cell-based, human
Conditions: for Total: healthy donors with induction of peptide-specific CTLs / donors tested: 8 HLA-A24^+ healthy donors; for Total: healthy donors with induction of peptide-specific CTLs / donors tested / Total: cancer patients with induction of peptide-specific CTLs / patients tested: positive when more than 50 pg/ml IFN-γ with p<0.05; for Total: cancer patients with induction of peptide-specific CTLs / patients tested: 20 HLA-A24^+ cancer patients; for IFN-γ Production: HIV peptide background subtracted, only significant values shown, — otherwise
Method: PBMCs from HLA-A24^+ cancer patients and HDs were used for the CTL induction assay. For the induction of peptide-specific CTLs, PBMCs (1.5×10^5 cells/well) were incubated with 10 μg/ml of each peptide in four different wells of a 96-well microculture plate (Nunc) in 200 μl of culture medium containing interleukin (IL)-2, as reported previously (Non-Patent Literature 18). Every 3 or 4 days, half the culture medium was removed and replaced with new medium containing the corresponding peptide (20 μg/ml) and 100 U/ml IL-2. On the 14th day, the cells from each well were independently harvested, washed, separated into four wells, and tested for their ability to produce interferon (IFN)-γ in response to C1R-A24 cells pulsed with a corresponding peptide or a negative control HIV peptide in the duplicate assays. C1R-A24 is an HLA-A2402-expressing subline of C1R lymphoma (Dr. M. Takiguchi, Kumamoto University, Japan). After an 18-h incubation of C1RA-24, the supernatant was collected, and the level of IFN-γ was determined by ELISA.
Whether or not the SCCA107, SCCA112, SCCA215, and SCCA286 peptides had the potential to induce peptide-specific CTLs from the PBMCs of 20 HLA-A24^+ cancer patients and 8 HLA-A24^+ healthy donors was investigated. The group of twenty cancer patients consisted of 4 esophageal SCC patients, 4 cervical SCC patients, 4 lung cancer patients (2 adenocarcinomas, one small cell carcinoma, and one squamous cell carcinoma), 4 gastric adenocarcinoma patients, and 4 colon adenocarcinoma patients. The assay was carried out in quadruplicate. The cultured cells in one well were separated into 4 wells, and two wells were used for the SCCA peptide-pulsed C1R-A24 cells, and the other two were used for the HIV peptide-pulsed C1R-A24 cells.

Sequence | Total: healthy donors with induction of peptide-specific CTLs / donors tested | Total: cancer patients with induction of peptide-specific CTLs / patients tested | Total: cancer patients with induction of peptide-specific CTLs / patients tested (listed as SCCA107) | IFN-γ Production (PBMCs of HLA-A24^+ healthy donor 7) [pg/mL] | IFN-γ Production (PBMCs of HLA-A24^+ patient 2, Esophagus) [pg/mL] | IFN-γ Production (PBMCs of HLA-A24^+ patient 6, Cervix of uterus) [pg/mL] | IFN-γ Production (PBMCs of HLA-A24^+ patient 13, Stomach) [pg/mL] | Total: cancer patients with induction of peptide-specific CTLs / patients tested (listed as SCCA286) | IFN-γ Production (PBMCs of HLA-A24^+ patient 4, Esophagus) [pg/mL] | IFN-γ Production (PBMCs of HLA-A24^+ patient 7, Cervix of uterus) [pg/mL]
LFGEKTYLFL (SCCA 107-116 peptide) [SCCA-derived peptide, position 107-116] | 1/8 | 3/20 | 3 of 20 | 259 | 84 | 105 | 500 |  |  | 
RFKVEESYDL (SCCA 286-295 peptide) [SCCA-derived peptide, position 286-295] | 0/8 | 3/20 |  |  |  |  |  | 3 of 20 | 97 | 169
